Data reported in US4818772A, “Derivatives of 4-aminoethoxy-5-isopropyl-2-methylbenzenes: methods of synthesis and utilization as medicines” (Societe Cortial S.A., priority 1981, dated 1989).
Counter-ions that a name gives are not always drawn. Like-named read-outs stand apart in the source and are kept apart here.

What was measured:
[1] = system: aortic strips isolated from rabbits (contractions induced by noradrenaline); assay: In vitro alpha-blocking activity: antagonism of noradrenaline-induced contractions of aortic strips; assay type: cell-based; conditions: Oryctolagus cuniculus, read-out: CI 50 (50% inhibition of standard contraction induced by noradrenaline), noradrenaline 2×10^-6 M/l
Experimental: In vitro alpha-blocking activity is determined by the antagonism of contractions of aortic strips isolated from rabbits. The contractions are induced by noradrenaline at a concentration of 2×10^-6 M/l. The technique utilized is derived from that of Furchgott and Bhadrakom (J. Pharmacol., 1953, 108, 129-43). The agonist is introduced in the bath 30 seconds or 14 minutes after the addition of the antagonist.

in vivo = conditions: mouse; for mortality: oral, Swiss mice, solvent varies by compound, read-out: Percentage mortality
Experimental: The toxicity of the compounds described in the present invention was determined by performing tests with Swiss mice. The animals, free of specific pathogenic organisms, are kept in an air-conditioned room for 24 to 48 hours before the beginning of the experiment. The animals are divided into groups consisting of 5 males and 5 females. The substances are administered with the appropriate carrier in a volume corresponding to 0.1 ml per 10 g of animal weight.
The following tables display the LD 50 determined for each compound, for oral and intraperitoneal administration, by utilizing the method described by J. C. Cazin (Bull. Soc. Pharm. Lille, 1972, 4, 187). In case the LD 50 could not be measured, the mortality percentages produced by various doses are reported.

[2] = system: hypertension induced by phenylephrine; assay: In vivo alpha-blocking activity: antagonism of hypertension induced by phenylephrine, intravenous, amyelic rats; conditions: for inhibition in vivo at 1.6 mg/kg / inhibition in vivo at 3.2 mg/kg / inhibition in vivo at 0.2 mg/kg: Rattus norvegicus, iv, read-out: % of maximum activity (percentage inhibition); for time for the residual activity to become 50% of the maximum activity: i.v.
Experimental: (§1) The in vivo alpha-blocking activity is estimated by the measurement of the antagonism of hypertension induced by phenylephrine. For intravenous administration, amyelic rats with both vagus nerves removed according to the technique of J. S. Gillespie and T. C. Muir (Br. J. Pharmac. Chemother., 1967, 30, 78-87) are used. The alpha-blocking agents are administered at doses of 0.2, 1.6 and 3.2 mg/kg.

unwashed human platelets = assay: Prevention of the aggregation of human platelets (plasma rich in platelets); assay type: cell-based; conditions: Platelet
Experimental: The studies were carried out with platelets in their natural surroundings (plasma rich in platelets). The inhibiting agent was tested in the presence of four types of aggregating agents (ADP, adrenalin, collagen, arachidonic acid) at various concentrations.
For each case, a dose-response curve was established.

[3] = system: hypertension induced by phenylephrine; assay: In vivo alpha-blocking activity: antagonism of hypertension induced by phenylephrine, oral, awake male rats; conditions: 5 mg/kg
Experimental: as §1
(§2) For oral administration, male rats kept awake and fitted with catheters implanted in the carotid artery and in the jugular vein are used. Compound COR 28 11 results in a maximum activity of 56.7±10.25% at a dose of 5 mg/kg. After 60 minutes, the activity is still 30%. The antihypertensive activity is determined on rats of Okamoto stock that are spontaneously hypertensive and anesthesized with pentobarbital. A dose of 0.1 mg/kg of compound COR 28 11 administered intravenously causes the average blood pressure to go from 135 to 106 mm of mercury.

[4] = system: rats of Okamoto stock that are spontaneously hypertensive; assay: Antihypertensive activity in spontaneously hypertensive rats; assay type: in vivo; conditions: i.v., 0.1 mg/kg; from 135 mm of mercury; anesthetized with pentobarbital
Experimental: as §2

[5] = agonist 30 seconds after antagonist (not flagged with *)
[6] = read-out: I 50 (50% inhibition of platelet aggregation), ADP 1.25μM/l
[7] = read-out: I 50 (50% inhibition of platelet aggregation), ADP 2.5μM/l
[8] = read-out: I 50 (50% inhibition of platelet aggregation), adrenalin 1μM/l
[9] = read-out: I 50 (50% inhibition of platelet aggregation), adrenalin 5μM/l
[10] = read-out: I 50 (50% inhibition of platelet aggregation), arachidonic acid 5·10^-4 M/l
[11] = read-out: I 50 (50% inhibition of platelet aggregation), arachidonic acid 10^-3 M/l
[12] = read-out: I 50 (50% inhibition of platelet aggregation), collagen 50μg/ml

Compound	IC50 [1, 5] [µM]	LD50 (in vivo; ip) [mg/kg]	LD50 (in vivo; po) [mg/kg]	inhibition in vivo at 1.6 mg/kg ([2]; 1.6 mg/kg) [%]	time for the residual activity to become 50% of the maximum activity ([2]; 1.6 mg/kg, given in m and s) [min]	inhibition in vivo at 3.2 mg/kg ([2]; 3.2 mg/kg) [%]	other results
Cc1cc(OCCNCCCc2ccccc2)c(C(C)C)cc1O [COR 28 21, hydrochloride of 5-isopropyl-2-methyl-4-[N-(3-phenylpropyl)aminoethoxy]phenol]	11.7	84.6	359	73.4 ± 6.99	50	–	–
COc1cc(C(C)C)c(OCCN(C)CCOc2c(OC)cccc2OC)cc1C [drawing 28]	–	–	–	–	–	–	IC50 (unwashed human platelets; [6]): 70 µM; IC50 (unwashed human platelets; [7]): 74 µM; IC50 (unwashed human platelets; [8]): 16 µM; IC50 (unwashed human platelets; [9]): 40 µM; IC50 (unwashed human platelets; [10]): > 100 µM; IC50 (unwashed human platelets; [11]): > 100 µM; IC50 (unwashed human platelets; [12]): 100 µM
CC(=O)Oc1cc(C(C)C)c(OCCN(C)C)cc1C [Moxisylyte, reference compound]	17	73	225	83.1 ± 5.71	–	82.6 ± 4.54	–
COc1cc(C(C)C)c(OCCN(C)CCOc2c(OC)cccc2OC)cc1C [COR 28 11, hydrochloride of N-(2,6-dimethoxyphenoxyethyl)-N-methyl-2-[(2-isopropyl-4-methoxy-5-methyl)phenoxy]ethylamine]	–	93	546	61.8 ± 4.9	> 60	74.6 ± 4.4	IC50 ([1]; 14 min, contact time 14 min): 21.6 µM; maximum activity [3]: 56.7±10.25%; activity after 60 minutes ([3]; after 60 minutes): 30%; average blood pressure after administration [4]: 106 mm of mercury; time for the residual activity to become 50% of the maximum activity ([2]; 3.2 mg/kg, given in m and s): 60 min
COc1cc(C(C)C)c(OCCN(C)CCOc2ccccc2)cc1C [COR 28 09, hydrochloride of N-methyl-N-phenoxyethyl-2-[(2-isopropyl-4-methoxy-5-methyl)phenoxy]ethylamine]	260	200	–	51.4 ± 5.1	–	74.7 ± 5.2	mortality (in vivo; 1000 mg/kg): 0%
CC(=O)Oc1cc(C(C)C)c(OCCN(C)CC2COc3ccccc3O2)cc1C (centres unmarked) [COR 28 13, hydrochloride of N-[(4-acetoxy-2-isopropyl-5-methyl)phenoxyethyl]-N-methyl-[2-(1,4-benzodioxane)]methylamine]	252	600	–	46.1 ± 6.01	–	61.1 ± 6.4	mortality (in vivo; 1000 mg/kg): 0%; mortality (in vivo; 2000 mg/kg): 20%
COc1cccc(OC)c1OCCN(C)CCOc1cc(C)c(O)cc1C(C)C [COR 28 22, hydrochloride of 4-[N-(2,6-dimethoxyphenoxyethyl)-N-methylaminoethoxy]-5-isopropyl-2-methylphenol]	0.178	66.2	316	112 ± 7.3	120	–	inhibition in vivo at 0.2 mg/kg ([2]; 0.2 mg/kg): 91.1 ± 3.46%; time for the residual activity to become 50% of the maximum activity ([2]; 0.2 mg/kg): 35 min
Cc1cc(OCCN(C)CCCc2ccccc2)c(C(C)C)cc1O [COR 28 23, hydrochloride of 5-isopropyl-2-methyl-4-[N-methyl-N-(3-phenylpropyl)aminoethoxy]phenol]	2.7	154	615	81.1 ± 2.35	20	–	–
Cc1cc(OCCNCC2COc3ccccc3O2)c(C(C)C)cc1O (centres unmarked) [COR 28 14, hydrochloride of N-[(4-hydroxy-2-isopropyl-5-methyl)phenoxyethyl]-[2-(1,4-benzodioxane)]methylamine]	6	174	952	92 ± 2.45	–	100	time for the residual activity to become 50% of the maximum activity ([2]; 3.2 mg/kg, given in m and s): > 60 min
COc1cc(C(C)C)c(OCCNCCOc2ccccc2)cc1C [COR 28 10, hydrochloride of N-phenoxyethyl-2-[(2-iso-propyl-4-methoxy-5-methyl)phenoxy]ethylamine]	350	81	–	66.3 ± 1.83	–	77	mortality (in vivo; 1000 mg/kg): 20%
Cc1cc(OCCN(C)CC2COc3ccccc3O2)c(C(C)C)cc1O (centres unmarked) [COR 28 12, hydrochloride of N-[(4-hydroxy-2-isopropyl-5-methyl)phenoxyethyl]-N-methyl-[2-(1,4-benzodioxane)]methylamine]	90	350	1430	59.1 ± 7.5	–	65.7 ± 4.5	–
COc1cccc(OC)c1OCCNCCOc1cc(C)c(O)cc1C(C)C [COR 28 25, hydrochloride of 4-[N-(2,6-dimethoxyphenoxyethyl)aminoethoxy]-5-isopropyl-2-methylphenol]	–	–	–	94.8 ± 2.22	120	–	inhibition in vivo at 0.2 mg/kg ([2]; 0.2 mg/kg): 70.2 ± 4.89%; time for the residual activity to become 50% of the maximum activity ([2]; 0.2 mg/kg): 20 min
Cc1cc(OCCNCC2COc3ccccc3O2)c(C(C)C)cc1O (centres unmarked) [drawing 29]	–	–	–	–	–	–	IC50 (unwashed human platelets; [6]): 60 µM; IC50 (unwashed human platelets; [7]): 58 µM; IC50 (unwashed human platelets; [8]): 24 µM; IC50 (unwashed human platelets; [9]): 50 µM; IC50 (unwashed human platelets; [10]): 15 µM; IC50 (unwashed human platelets; [11]): 54 µM; IC50 (unwashed human platelets; [12]): 52 µM
